We go through 3 molecules from PubChem BioAssay AID1259407 (Chemical Carcinogenesis Research Information System (CCRIS), 2018).

Each structure is given as a SMILES string. Activity calls are given as the source filed them. The rule behind the calls is not given here.

For the series, the system named is CCRIS mutagenicity, Ames/micronucleus/aberration tests. The experiment in a line: CCRIS mutagenicity studies.
The mark [1] stands for this setting: Test System: AMES SALMONELLA TYPHIMURIUM, Strain/Indicator: TA98, Metabolic Activation: NONE, Method: STANDARD PLATE.
[2] abbreviates: Test System: AMES SALMONELLA TYPHIMURIUM, Strain/Indicator: TA100, Metabolic Activation: NONE, Method: STANDARD PLATE.
Where [3] appears, read: Test System: AMES SALMONELLA TYPHIMURIUM, Strain/Indicator: TA1535, Metabolic Activation: NONE, Method: STANDARD PLATE.
Setting [4] is: Test System: AMES SALMONELLA TYPHIMURIUM, Strain/Indicator: TA1535, Metabolic Activation: RAT, LIVER, S-9, AROCLOR 1254, Method: STANDARD PLATE.
The mark [5] stands for this setting: Test System: AMES SALMONELLA TYPHIMURIUM, Strain/Indicator: TA1537, Metabolic Activation: NONE, Method: STANDARD PLATE.
Where [6] appears, read: Test System: AMES SALMONELLA TYPHIMURIUM, Strain/Indicator: TA1537, Metabolic Activation: RAT, LIVER, S-9, AROCLOR 1254, Method: STANDARD PLATE.
Where [7] appears, read: Test System: AMES SALMONELLA TYPHIMURIUM, Strain/Indicator: TA1538, Metabolic Activation: NONE, Method: STANDARD PLATE.
Where [8] appears, read: Test System: AMES SALMONELLA TYPHIMURIUM, Strain/Indicator: TA1538, Metabolic Activation: RAT, LIVER, S-9, AROCLOR 1254, Method: STANDARD PLATE.

As for `C=CC(=O)OCCOCCOC(=O)C=C`, the mutagenic call is “inactive; negative” under setting [1]; “inactive; negative” (Test System: AMES SALMONELLA TYPHIMURIUM, Strain/Indicator: TA98, Metabolic Activation: RAT, LIVER, S-9, AROCLOR 1254, Method: STANDARD PLATE); “inactive; negative” (Test System: AMES SALMONELLA TYPHIMURIUM, Strain/Indicator: TA98, Metabolic Activation: RAT, LIVER, S-9, SODIUM PHENOBARBITAL, Method: STANDARD PLATE); “inactive; negative” under setting [2]; “inactive; negative” (Test System: AMES SALMONELLA TYPHIMURIUM, Strain/Indicator: TA100, Metabolic Activation: RAT, LIVER, S-9, AROCLOR 1254, Method: STANDARD PLATE); “inactive; negative” (Test System: AMES SALMONELLA TYPHIMURIUM, Strain/Indicator: TA100, Metabolic Activation: RAT, LIVER, S-9, SODIUM PHENOBARBITAL, Method: STANDARD PLATE). Besides, the mutagenic call runs as follows: under setting [3], “inactive; negative”; under setting [4], “inactive; negative”; (Test System: AMES SALMONELLA TYPHIMURIUM, Strain/Indicator: TA1535, Metabolic Activation: RAT, LIVER, S-9, SODIUM PHENOBARBITAL, Method: STANDARD PLATE) “inactive; negative”; under setting [5], “inactive; negative”; under setting [6], “inactive; negative”; (Test System: AMES SALMONELLA TYPHIMURIUM, Strain/Indicator: TA1537, Metabolic Activation: RAT, LIVER, S-9, SODIUM PHENOBARBITAL, Method: STANDARD PLATE) “inactive; negative”. Moreover, the mutagenic call under setting [7] was “inactive; negative”; the mutagenic call under setting [8] was “inactive; negative”; the mutagenic call (Test System: AMES SALMONELLA TYPHIMURIUM, Strain/Indicator: TA1538, Metabolic Activation: RAT, LIVER, S-9, SODIUM PHENOBARBITAL, Method: STANDARD PLATE) was “inactive; negative”.
As to `C[n+]1c2ccccc2nc2ccccc21`, the mutagenic call under setting [1] was “inactive; negative”; the mutagenic call (Test System: AMES SALMONELLA TYPHIMURIUM, Strain/Indicator: TA102, Metabolic Activation: NONE, Method: PREINCUBATION) is “inactive; negative”; the mutagenic call (Test System: AMES SALMONELLA TYPHIMURIUM, Strain/Indicator: TA102, Metabolic Activation: NONE, Method: STANDARD PLATE) is “inactive; negative”; the mutagenic call (Test System: AMES SALMONELLA TYPHIMURIUM, Strain/Indicator: TA1535, Metabolic Activation: NONE, Method: PREINCUBATION) was “inactive; negative”; the mutagenic call under setting [3] was “inactive; negative”; the mutagenic call under setting [4] was “inactive; negative”. Besides, the mutagenic call is, setting by setting: under setting [5], “active; positive”; under setting [6], “active; positive”; under setting [7], “inactive; negative”; under setting [8], “inactive; negative”; (Test System: AMES SALMONELLA TYPHIMURIUM, Strain/Indicator: TA1975, Metabolic Activation: NONE, Method: PREINCUBATION) “inactive; negative”; (Test System: AMES SALMONELLA TYPHIMURIUM, Strain/Indicator: TA2638, Metabolic Activation: NONE, Method: STANDARD PLATE) “inactive; negative”. The mutagenic call reads like this: (Test System: AMES SALMONELLA TYPHIMURIUM, Strain/Indicator: YG3001, Metabolic Activation: NONE, Method: PREINCUBATION) “inactive; negative”; (Test System: AMES SALMONELLA TYPHIMURIUM, Strain/Indicator: YG3002, Metabolic Activation: NONE, Method: PREINCUBATION) “inactive; negative”; (Test System: AMES SALMONELLA TYPHIMURIUM, Strain/Indicator: YG3003, Metabolic Activation: NONE, Method: PREINCUBATION) “inactive; negative”; (Test System: E. COLI, Strain/Indicator: WP2 (PKM101), Metabolic Activation: NONE, Method: STANDARD PLATE) “inactive; negative”; (Test System: E. COLI, Strain/Indicator: WP2 UVRA (PKM101), Metabolic Activation: NONE, Method: STANDARD PLATE) “active; positive”.
`O=CN(O)c1ccc(Oc2ccc(Cl)cc2Cl)cc1`: the mutagenic call by setting is: under setting [2], “inactive; negative”; (Test System: AMES SALMONELLA TYPHIMURIUM, Strain/Indicator: TA100, Metabolic Activation: RAT, LIVER, S-9, KANECLOR 500, Method: STANDARD PLATE) “active; positive”.
